These are literature values, as cited in patent US10449180B2, “Macrolide particulates, methods for preparation, and medical devices associated therewith” (Surmodics, Inc., priority 2013, dated 2019).

In the case of `CO[C@H]1C[C@@H]2CC[C@@H](C)[C@@](O)(O2)C(=O)C(=O)N2CCCC[C@H]2C(=O)O[C@H]([C@H](C)C[C@@H]2CC[C@@H](O)[C@H](OC)C2)CC(=O)[C@H](C)/C=C(\C)[C@@H](O)[C@@H](OC)C(=O)[C@H](C)C[C@H](C)/C=C/C=C/C=C/1C` [Rapamycin, rapamycin], the “solubility in N,N-dimethylformamide” value (N,N-dimethylformamide) was “soluble”. The solubility in acetone result (acetone) is “soluble”. Besides, the solubility in ether entry (ether) is recorded as “soluble”. Moreover, where the note is “water”, the solubility in water entry is recorded as “insoluble”.
